Measurements reported in patent US9145415B2, “Nitrogen-containing heterocyclic compound or salt thereof” (FUJIFILM Corporation, priority 2012, dated 2015).
Read-outs that look alike come from different tables or passages of the source.

What was measured:
[1] = molecular target: T1, human FLT3 protein (FLT3 (WT)) (Homo sapiens, UniProt P36888); experiment: FLT3 inhibition test (FLT3 enzyme inhibition, time-resolved fluorescence of substrate peptide phosphorylation); format: biochemical; settings: read-out: FLT3 (WT) enzyme inhibition activity
T1 construct: human FLT3 protein (intracellular region, 564 to 993 aa); GST; purchased Carna Biosciences; host or cells: baculovirus expression system
T1 sequence (P36888 564-993): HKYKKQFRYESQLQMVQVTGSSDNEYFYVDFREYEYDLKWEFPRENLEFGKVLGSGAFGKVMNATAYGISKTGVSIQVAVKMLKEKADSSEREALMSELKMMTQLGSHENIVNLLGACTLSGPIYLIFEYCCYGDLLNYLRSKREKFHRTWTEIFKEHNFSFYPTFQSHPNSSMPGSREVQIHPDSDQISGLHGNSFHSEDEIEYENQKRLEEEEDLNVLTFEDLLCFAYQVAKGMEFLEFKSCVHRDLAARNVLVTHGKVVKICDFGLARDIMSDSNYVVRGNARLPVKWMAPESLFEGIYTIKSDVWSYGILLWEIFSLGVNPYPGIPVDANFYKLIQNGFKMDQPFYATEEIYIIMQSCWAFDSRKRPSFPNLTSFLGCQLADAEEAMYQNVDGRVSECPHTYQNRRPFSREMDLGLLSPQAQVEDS
Procedure, shortened: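 Substrate peptide phosphorylation detected by time-resolved fluorescence after a 30 min kinase reaction at 25° C with 50 μM ATP (final). Beforehand, compound and FLT3 (WT, 1.2 μg) stood 15 min at 25° C in HEPES buffer pH 7.5 containing MgCl2, NaCl, BSA and DTT.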

[2] = system: MV4-11 cells; experiment: Leukemia cell proliferation inhibition test (ATPlite), MV4-11; format: cell-based; settings: Homo sapiens, read-out: MV4-11 cell proliferation inhibition effect
Procedure, shortened: (§1)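 Luminescent ATP read-out (firefly luciferase) used as a total cell count after 72 h compound exposure at 37° C, 5% CO2. Cells: 10,000/well in RPMI + 10% FBS. GI50 = 50% inhibition relative to 0.1% DMSO, from a sigmoid dose-response fit; duplicates.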

[3] = system: Molm-13 cells; experiment: Leukemia cell proliferation inhibition test (ATPlite), Molm-13; format: cell-based; settings: Homo sapiens, read-out: MOLM13 cell proliferation inhibition effect
Procedure, shortened: as §1

[4] = GST-fused human FLT3 (564 to 993 aa), ATP 50 μM
[5] = MV4-11, 72 h, MV4-11, 72 hours culture, ATPlite, GI50 per method
[6] = MOLM-13, 72 h, Molm-13, 72 hours culture, ATPlite, GI50 per method

| Structure (SMILES) | IC50 ([1]; FLT3 (WT)) [nM] | IC50 ([2]; MV4-11, MV4-11 cell) [nM] | IC50 ([3]; MOLM-13, MOLM13 cell) [nM] | IC50 [1, 4] [nM] | IC50 [2, 5] [nM] | IC50 [3, 6] [nM] |
| --- | --- | --- | --- | --- | --- | --- |
| CCCNc1nc(Nc2cccc(F)c2)ncc1C#C[C@H]1CCCC(NC(=O)[C@H](C)N(C)C(=O)/C=C/CN(C)C)C1 (stereo in doubt) [Compound 13-2, (E)-4-(dimethylamino)-N—((S)-1-(((1R,3S)-3-((2-((3-fluorophenyl)amino)-4-(propylamino)pyrimidin-5-yl)ethynyl)cyclohexyl)amino)-1-oxopropan-2-yl)-N-methyl-2-butenamide] | – | – | – | < 10 | 10 to 100 | 10 to 100 |
| CCCCN(CC(=O)NCCCC#Cc1cnc(Nc2ccc(C#N)cc2)nc1NCCC)C(=O)/C=C/CN(C)C [Compound 7-70] | – | – | – | < 10 | < 10 | < 10 |
| CCCNc1nc(Nc2ccc(C(N)=O)cc2)ncc1C#CCCCNC(C)(C)CNC(=O)/C=C/CN(C)C [Compound 8-10] | – | – | – | < 10 | < 10 | 10 to 100 |
| CCCNc1nc(NCCc2ccncc2)ncc1C(=O)Nc1cccc(NC(=O)C(C)(C)NC(=O)/C=C/CN(C)C)c1 [Compound 2-11] | – | – | – | < 10 | 10 to 100 | 10 to 100 |
| CCCNc1nc(Nc2ccc(C(N)=O)cc2)ncc1C(=O)Nc1cccc(NC(=O)[C@H](C)N(C)C(=O)/C=C/CBr)c1 [Compound 3-7, (S,E)-N-(3-(2-(4-bromo-N-methyl-2-butenamido)propanamido)phenyl)-2-((4-carbamoylphenyl)amino)-4-(propylamino)pyrimidine-5-carboxamide] | – | – | – | < 10 | 10 to 100 | 10 to 100 |
| CNc1nc(Nc2cccc(F)c2)ncc1C#CCCCNC(=O)[C@@H]1CCCN1C(=O)/C=C/CN(C)C [Compound 7-77] | – | – | – | < 10 | < 10 | < 10 |
| CCCNc1nc(Nc2cccc(F)c2)ncc1C#Cc1cc(NC(=O)[C@H](C)N(C)C(=O)/C=C/CN(C)C)ccc1F [Compound 8-7] | – | – | – | < 10 | < 10 | 10 to 100 |
| C[C@@H](C(=O)NCCCC#Cc1cnc(Nc2ccc(C#N)cc2)nc1N1CCC(F)(F)CC1)N(C)C(=O)/C=C/CN(C)C [Compound 10-43] | – | – | – | < 10 | 10 to 100 | 10 to 100 |
| CNc1nc(Nc2cccc(F)c2)ncc1C#CCCCNC(=O)[C@@H]1C[C@H](F)CN1C(=O)/C=C/CN(C)C [Compound 7-72, (2S,4S)-1-((E)-4-(Dimethylamino)-2-butenoyl)-4-fluoro-N-(5-(2-((3-fluorophenyl)amino)-4-(methylamino)pyrimidin-5-yl)-4-pentyn-1-yl)pyrrolidine-2-carboxamide] | – | – | – | < 10 | < 10 | < 10 |
| CNc1nc(Nc2ccc(F)cc2)ncc1C#CCCCNC(=O)[C@@H]1C[C@H](F)CN1C(=O)/C=C/CN(C)C [Compound 7-80, (2S,4S)-1-((E)-4-(Dimethylamino)-2-butenoyl)-4-fluoro-N-(5-(2-((4-fluorophenyl)amino)-4-(methylamino)pyrimidin-5-yl)-4-pentyn-1-yl)pyrrolidine-2-carboxamide] | – | – | – | < 10 | < 10 | < 10 |
| CCCNc1nc(Nc2ccc(C(=O)N(C)C)cc2)ncc1C#CCCCNC(=O)CN(C)C(=O)/C=C/CN(C)C [Compound 7-16] | – | – | – | 10 to 100 | < 10 | < 10 |
| CCCNc1nc(Nc2cc(C)ns2)ncc1C#CCCCNC(=O)[C@H](C)N(C)C(=O)/C=C/CN(C)C [Compound 9-30, (S,E)-4-(Dimethylamino)-N-methyl-N-(1-((5-(2-((3-methylisothiazol-5-yl)amino)-4-(propylamino)pyrimidin-5-yl)-4-pentyn-1-yl)amino)-1-oxopropan-2-yl)-2-butenamide] | – | – | – | < 10 | < 10 | < 10 |
| CCCNc1nc(Nc2ccc(C#N)cc2)ncc1C#CCCCNC(=O)[C@@H]1C[C@H](O)CN1C(=O)/C=C/CN(C)C [Compound 7-69] | – | – | – | < 10 | < 10 | < 10 |
| COCCNc1nc(Nc2ccc(C#N)cc2)ncc1C#CCCCNC(=O)[C@H](C)N(C)C(=O)/C=C/CN(C)C [Compound 10-50] | – | – | – | < 10 | < 10 | < 10 |
| CCNc1nc(Nc2ccc3[nH]ncc3c2)ncc1C#CCCCNC(=O)[C@H](C)N(C)C(=O)/C=C/CN(C)C [Compound 10-61] | – | – | – | < 10 | < 10 | < 10 |
| CCCNc1nc(Nc2cccc(F)c2)ncc1C#CCCCNC(=O)[C@@H]1C[C@H](F)CN1C(=O)/C=C/CN(C)C [Compound 7-49] | – | – | – | < 10 | < 10 | < 10 |
| C[C@@H](C(=O)NCCCC#Cc1cnc(Nc2ccc3cn[nH]c3c2)nc1NC1CC1)N(C)C(=O)/C=C/CN(C)C [Compound 10-73] | – | – | – | < 10 | < 10 | < 10 |
| CCCN(C)c1nc(Nc2cccc(F)c2)ncc1C#CCCCNC(=O)[C@H](C)N(C)C(=O)/C=C/CN(C)C [Compound 9-5] | – | – | – | < 10 | 10 to 100 | 10 to 100 |
| CCCNc1nc(NCCc2ccncc2)ncc1C(=O)NCCC(CC)NC(=O)CN(C)C(=O)/C=C/CN(C)C (stereo not drawn) [Compound 1-12] | – | – | – | < 10 | < 10 | 10 to 100 |
| C=CC(=O)NCC(=O)N1CCC(NC(=O)c2cnc(NCCc3ccncc3)nc2NCCC)C1 (stereo not drawn) [Compound 6-17] | – | – | – | 10 to 100 | 100 to 1000 | 100 to 1000 |
| CCCNc1nc(NCCc2ccncc2)ncc1C(=O)NCCCNC(=O)CNC(=O)/C=C/CN(C)C [Compound 2-24] | – | – | – | < 10 | 10 to 100 | 10 to 100 |
| CCCNc1nc(NCCc2ccncc2)ncc1C(=O)Nc1ccc(OC)c(NC(=O)CN(C)C(=O)/C=C/CN(C)C)c1 [Compound 1-10] | – | – | – | < 10 | < 10 | < 10 |

Further lines, results first:

| IC50 ([1]; FLT3 (WT)) [nM] | IC50 ([2]; MV4-11, MV4-11 cell) [nM] | IC50 ([3]; MOLM-13, MOLM13 cell) [nM] | IC50 [1, 4] [nM] | IC50 [2, 5] [nM] | IC50 [3, 6] [nM] | Structure (SMILES) |
| --- | --- | --- | --- | --- | --- | --- |
| < 10 | < 10 | < 10 | – | – | – | CNc1ncc(C#C[C@@H]2CCC[C@H](NC(=O)[C@H](C)N(C)C(=O)/C=C/CN(C)C)C2)c(Nc2ccc(F)cc2)n1 [Compound 21-37] |
| < 10 | < 10 | < 10 | – | – | – | CCCNc1nc(Nc2ccc(F)cc2)ncc1C#C[C@@H]1CCC[C@H](NC(=O)[C@H](C)N(C)C(=O)/C=C/CN(C)C)C1 [Compound 21-40] |
| < 10 | < 10 | < 10 | – | – | – | CCCOc1nc(Nc2cccc(F)c2)ncc1C#C[C@@H]1CCC[C@H](NC(=O)[C@H](C)N(C)C(=O)/C=C/CN(C)C)C1 [Compound 21-52] |
| < 10 | < 10 | < 10 | – | – | – | CCCNc1nc(Nc2ccc3occc3c2)ncc1C#CCCCNC(=O)[C@H](C)N(C)C(=O)/C=C/CN(C)C [Compound 21-34] |
| < 10 | < 10 | < 10 | – | – | – | CCCNc1nc(Nc2ccc3c(cnn3C)c2)ncc1C#CCCCNC(=O)[C@@H]1CCCN1C(=O)/C=C/CN(C)C [Compound 22-31, (S,E)-1-(4-(Dimethylamino)-2-butenoyl)-N-(5-(2-((1-methyl-1H-indazol-5-yl)amino)-4-(propylamino)pyrimidin-5-yl)-4-pentyn-1-yl)pyrrolidine-2-carboxamide] |
| < 10 | < 10 | < 10 | – | – | – | CC(C)Nc1nc(Nc2cccc(F)c2)ncc1C#C[C@@H]1CCC[C@H](NC(=O)[C@H](C)N(C)C(=O)/C=C/CN(C)C)C1 [Compound 21-30] |
| < 10 | < 10 | < 10 | – | – | – | CCCNc1nc(Nc2cnc3c(cnn3CCOC)c2)ncc1C#CCCCNC(=O)[C@@H]1CCCN1C(=O)/C=C/CN(C)C [Compound 22-44, (S,E)-1-(4-(Dimethylamino)-2-butenoyl)-N-(5-(2-((1-(2-methoxyethyl)-1H-pyrazolo[3,4-b]pyridin-5-yl)amino)-4-(propylamino)pyrimidin-5-yl)-4-pentyn-1-yl)pyrrolidine-2-carboxamide] |
| < 10 | < 10 | < 10 | – | – | – | C[C@@H](C(=O)N[C@H]1CCC[C@@H](C#Cc2cnc(Nc3ccc(F)cc3)nc2NC2CC2)C1)N(C)C(=O)/C=C/CN(C)C [Compound 21-46] |
| < 10 | < 10 | < 10 | – | – | – | CCCNc1nc(Nc2cnc3[nH]nc(C)c3c2)ncc1C#CCCCNC(=O)[C@H](C)N(C)C(=O)/C=C/CN(C)C [Compound 22-51, (S,E)-4-(Dimethylamino)-N-methyl-N-(1-((5-(2-((3-methyl-1H-pyrazolo[3,4-b]pyridin-5-yl)amino)-4-(propylamino)pyrimidin-5-yl)-4-pentyn-1-yl)amino)-1-oxopropan-2-yl)-2-butenamide] |
